Measurements reported in patent US9328372B2, “Coenzyme-linked glucose dehydrogenase and polynucleotide encoding the same” (Ikeda Food Research Co., Ltd., priority 2005, dated 2016).

Tested on: coenzyme-linked glucose dehydrogenase
Experiment: Inhibitor test with 1,10-phenanthroline
Assay type: biochemical, Aspergillus terreus
Method: 1.0 ml of 0.1 M potassium phosphate buffer (pH 7.0), 1.0 ml of 1.0 M D-glucose, 0.1 ml of 3 mM 2,6-dichlorophenolindophenol (hereinafter, referred to as DCIP), 0.2 ml of 3 mM 1-methoxy-5-methylphenazium methylsulfate, and 0.65 ml of water are placed in a 3 ml quartz cell (with an optical path length of 1 cm), and then the cell is placed in a spectrophotometer equipped with a thermostat cell holder. After the cell is incubated at 37° C. for five minutes, 0.05 ml of an enzyme liquid is added thereto, followed by measuring absorbance change (αABS/min) of DCIP at 600 nm. The mol-absorption coefficient of DCIP at pH 7.0 is defined to be 16.3×10^3 cm^−1M^−1. Since one unit of the enzyme activity is substantially equivalent to the enzyme activity that reduces 1 μmol of DCIP per minute, the enzyme activity is determined by absorbance change in accordance with the following formula. To the reaction system in the activity measurement method-1, 1,10-phenanthroline dissolved in methanol so that each final concentration was 1 mM, 5 mM, 10 mM, 25 mM, or 50 mM, was added, followed by measuring the activity of the purified enzymes 1 to 6 by the activity measurement method-1. […] As a control, methanol was added to the reaction system in the activity measurement method-1 at the final concentration of 10% (v/v), and then the activity was measured by the activity measurement method-1. […]

`c1cnc2c(c1)ccc1cccnc12` [1,10-phenanthroline] was tested, and the inhibition ratio (1,10-phenanthroline at final concentration of 1 mM or more, purified enzymes 1 to 6, 10% (v/v) methanol) was ≥ 60% and the “inhibition of the activity by 1,10-phenanthroline” value (GLD according to the invention, general characteristics, concentration not given) was “At least 60%”.
